Tests used:
[1] = biological target: Tyrosine-protein kinase JAK2 (Homo sapiens, UniProt O60674); test: (§1) In Vitro Assays for Determining the Inhibition of Janus Kinases: The in vitro inhibition of recombinant human JAKs was determined as follow.Compounds were tested in LANTHASCREEN™ time-resolved fluorescence energy transfer (TR-FRET) enzymatic assays from Invitrogen. The human Janus kinase 1 (JAK1) used in the assay is the recombinant JAK1 catalytic domain (amino acids 866-1154) expressed and purified from insect cells (Invitrogen, Cat. No. PV4774). The human Janus kinase 2 (JAK2) used in the assay is the recombinant JAK2 catalytic domain (amino acids 808-1132) expressed and purified from insect cells (Invitrogen, Cat. No. PV4210). The human Janus kinase 3 (JAK3) used in the assay is the recombinant JAK3 catalytic domain (amino acids 781-1124) expressed and purified from insect cells (Invitrogen, Cat. No. PV3855). The human tyrosine kinase 2 (TYK2) used in the assay is the recombinant TYK2 catalytic domain (amino acids 833-1187) expressed and purified from insect cells (Invitrogen, Cat. No. PV4790). The substrate is a recombinant STAT1 expressed as a fusion with GFP (Green Fluorescent Protein) to act as a physiological substrate (Invitrogen, Cat. No. PV5211).Test compounds were prepared and diluted in DMSO in 3-fold serial dilutions for 10 doses to 100× of the final testing concentrations. The compounds were then further diluted to 4× by the kinase reaction buffer (Invitrogen, Cat. No. PV3189). The enzymatic reaction for compound testing was performed in a white 384-well polypropylene plate (Packard, Cat. No. 6005214) with a total reaction volume of 10 μL containing 440 ng/mL JAK1, 11 ng/mL JAK2, 400 ng/mL JAK3, or 200 ng/mL TYK2, 100 nM substrate, and 1 mM ATP. The assay started with loading 2.5 μL of JAK1, JAK2, JAK3, or TYK2 diluted in the kinase reaction buffer to wells, followed by addition of an equal volume of 4× compounds for 15-min incubation at room temperature for pre-treatment. The enzymatic reaction was initiated by addition of 5 μL of a mixture of the substrate and ATP prepared in the kinase reaction buffer. […]
[2] = biological target: Tyrosine-protein kinase JAK1 (Homo sapiens, UniProt P23458); test: as §1
[3] = biological target: Non-receptor tyrosine-protein kinase TYK2 (Homo sapiens, UniProt P29597); test: as §1

Measured: IC50

Tyrosine-protein kinase JAK1, sequence (P23458 whole entry): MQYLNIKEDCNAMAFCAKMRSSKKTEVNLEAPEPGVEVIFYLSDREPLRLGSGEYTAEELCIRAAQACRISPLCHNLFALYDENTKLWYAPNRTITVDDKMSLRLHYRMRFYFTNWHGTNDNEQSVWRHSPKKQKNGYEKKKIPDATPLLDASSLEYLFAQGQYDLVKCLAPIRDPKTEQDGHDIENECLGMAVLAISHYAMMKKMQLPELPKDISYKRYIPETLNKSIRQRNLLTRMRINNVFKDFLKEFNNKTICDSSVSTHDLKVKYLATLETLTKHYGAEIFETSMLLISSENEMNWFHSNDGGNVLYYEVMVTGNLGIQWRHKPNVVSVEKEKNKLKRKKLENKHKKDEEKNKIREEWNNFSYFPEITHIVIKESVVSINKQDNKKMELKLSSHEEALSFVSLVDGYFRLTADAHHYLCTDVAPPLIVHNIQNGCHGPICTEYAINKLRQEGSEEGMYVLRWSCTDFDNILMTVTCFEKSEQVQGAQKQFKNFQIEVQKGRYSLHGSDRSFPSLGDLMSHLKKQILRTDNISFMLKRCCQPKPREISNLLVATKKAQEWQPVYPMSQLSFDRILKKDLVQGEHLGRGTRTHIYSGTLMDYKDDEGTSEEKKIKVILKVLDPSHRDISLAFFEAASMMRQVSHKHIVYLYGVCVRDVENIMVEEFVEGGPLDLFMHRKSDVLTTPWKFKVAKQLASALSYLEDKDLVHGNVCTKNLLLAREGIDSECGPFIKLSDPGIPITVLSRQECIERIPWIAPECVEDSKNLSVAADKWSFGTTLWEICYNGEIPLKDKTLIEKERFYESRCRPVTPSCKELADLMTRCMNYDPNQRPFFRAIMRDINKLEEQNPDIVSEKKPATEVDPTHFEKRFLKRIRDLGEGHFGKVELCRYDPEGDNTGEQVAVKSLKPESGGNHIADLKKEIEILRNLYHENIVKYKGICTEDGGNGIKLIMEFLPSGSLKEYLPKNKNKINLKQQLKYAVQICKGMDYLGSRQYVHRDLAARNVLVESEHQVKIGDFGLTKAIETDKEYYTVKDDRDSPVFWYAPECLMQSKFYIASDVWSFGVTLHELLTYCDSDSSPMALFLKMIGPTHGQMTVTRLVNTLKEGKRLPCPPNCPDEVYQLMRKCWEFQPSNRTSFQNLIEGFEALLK
Non-receptor tyrosine-protein kinase TYK2, sequence (P29597 whole entry): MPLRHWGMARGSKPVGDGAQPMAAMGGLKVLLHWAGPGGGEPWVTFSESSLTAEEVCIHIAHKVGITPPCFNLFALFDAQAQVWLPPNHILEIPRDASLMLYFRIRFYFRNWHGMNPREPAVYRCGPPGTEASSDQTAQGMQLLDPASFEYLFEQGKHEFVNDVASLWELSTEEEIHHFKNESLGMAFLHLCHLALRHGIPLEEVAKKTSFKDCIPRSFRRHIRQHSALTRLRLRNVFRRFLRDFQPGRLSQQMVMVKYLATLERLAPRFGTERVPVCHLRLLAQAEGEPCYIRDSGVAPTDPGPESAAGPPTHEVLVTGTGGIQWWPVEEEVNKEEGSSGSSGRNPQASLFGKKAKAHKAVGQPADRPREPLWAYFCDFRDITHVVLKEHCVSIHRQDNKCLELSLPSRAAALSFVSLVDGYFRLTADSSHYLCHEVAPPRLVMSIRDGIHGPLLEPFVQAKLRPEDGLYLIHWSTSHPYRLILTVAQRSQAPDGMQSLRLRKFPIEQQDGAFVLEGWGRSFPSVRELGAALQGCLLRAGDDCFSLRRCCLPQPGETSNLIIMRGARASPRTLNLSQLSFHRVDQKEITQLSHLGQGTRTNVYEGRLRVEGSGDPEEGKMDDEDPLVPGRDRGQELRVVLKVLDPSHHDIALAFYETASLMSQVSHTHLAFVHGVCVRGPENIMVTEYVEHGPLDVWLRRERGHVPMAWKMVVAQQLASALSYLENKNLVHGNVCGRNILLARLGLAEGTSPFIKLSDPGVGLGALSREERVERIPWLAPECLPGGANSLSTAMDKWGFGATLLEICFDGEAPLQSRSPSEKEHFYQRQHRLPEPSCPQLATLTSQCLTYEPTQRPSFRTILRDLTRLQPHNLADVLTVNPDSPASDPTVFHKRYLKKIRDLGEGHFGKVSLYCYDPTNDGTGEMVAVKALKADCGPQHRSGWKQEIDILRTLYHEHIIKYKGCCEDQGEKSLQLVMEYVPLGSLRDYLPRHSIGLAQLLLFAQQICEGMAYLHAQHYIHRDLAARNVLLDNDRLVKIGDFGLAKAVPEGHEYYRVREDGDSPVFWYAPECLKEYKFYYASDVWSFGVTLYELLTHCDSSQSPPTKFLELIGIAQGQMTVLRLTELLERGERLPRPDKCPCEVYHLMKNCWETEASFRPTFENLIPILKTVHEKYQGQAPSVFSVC
Tyrosine-protein kinase JAK2, sequence (O60674 whole entry, the tested form may be a part): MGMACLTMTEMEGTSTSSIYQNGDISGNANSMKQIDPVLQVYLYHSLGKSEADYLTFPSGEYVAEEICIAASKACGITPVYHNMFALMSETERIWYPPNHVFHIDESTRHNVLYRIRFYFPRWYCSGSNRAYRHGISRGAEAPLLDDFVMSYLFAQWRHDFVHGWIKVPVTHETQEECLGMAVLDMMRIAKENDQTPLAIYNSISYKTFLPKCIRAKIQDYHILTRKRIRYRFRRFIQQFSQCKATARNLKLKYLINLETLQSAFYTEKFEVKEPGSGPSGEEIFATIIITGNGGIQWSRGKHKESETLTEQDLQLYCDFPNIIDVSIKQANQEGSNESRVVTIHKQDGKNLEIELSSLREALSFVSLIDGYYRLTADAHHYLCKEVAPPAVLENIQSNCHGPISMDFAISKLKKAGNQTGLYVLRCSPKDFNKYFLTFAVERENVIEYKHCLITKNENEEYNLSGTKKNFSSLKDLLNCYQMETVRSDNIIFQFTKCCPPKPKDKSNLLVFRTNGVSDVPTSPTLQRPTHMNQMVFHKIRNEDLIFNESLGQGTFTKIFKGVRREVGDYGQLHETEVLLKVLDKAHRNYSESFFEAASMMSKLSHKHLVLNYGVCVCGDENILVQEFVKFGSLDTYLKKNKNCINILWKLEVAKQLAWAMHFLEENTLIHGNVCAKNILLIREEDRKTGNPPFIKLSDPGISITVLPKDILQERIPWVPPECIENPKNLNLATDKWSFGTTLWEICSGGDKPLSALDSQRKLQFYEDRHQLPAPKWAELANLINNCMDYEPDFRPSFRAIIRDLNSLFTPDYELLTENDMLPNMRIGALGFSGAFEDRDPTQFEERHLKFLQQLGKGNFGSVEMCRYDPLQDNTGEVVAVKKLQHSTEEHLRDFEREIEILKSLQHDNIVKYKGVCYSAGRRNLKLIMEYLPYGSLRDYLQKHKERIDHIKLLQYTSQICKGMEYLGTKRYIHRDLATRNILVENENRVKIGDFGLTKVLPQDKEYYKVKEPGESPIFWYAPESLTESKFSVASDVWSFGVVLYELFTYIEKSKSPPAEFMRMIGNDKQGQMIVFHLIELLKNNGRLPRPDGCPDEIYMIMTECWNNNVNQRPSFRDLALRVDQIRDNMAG

N#CC1(c2ccc(-c3cccc4nc(NC(=O)C5CC5)cn34)cc2)CC1
> 5 µM: all assays above

— ChEMBL document CHEMBL5727863, “Substituted imidazo[1,2-A]pyridin-2-ylamine compounds, and pharmaceutical compositions and methods of use thereof” (2020)
